What was measured:
[1] = molecular target: Mitogen-activated protein kinase 14 (Homo sapiens, UniProt Q16539); assay: Inhibition of p38alpha (unknown origin)
[2] = molecular target: Dual specificity mitogen-activated protein kinase kinase 1 (Homo sapiens, UniProt Q02750); assay: Inhibition of MEK1 (unknown origin)
Aurora kinase B = Aurora kinase B (Homo sapiens, UniProt Q96GD4); assay: Inhibition of aurora-B (unknown origin)
[3] = molecular target: RAC-alpha serine/threonine-protein kinase (Homo sapiens, UniProt P31749); assay: Inhibition of Akt1 (unknown origin)
[4] = molecular target: Proto-oncogene tyrosine-protein kinase Src (Homo sapiens, UniProt P12931); assay: Inhibition of Src (unknown origin)
[5] = molecular target: Receptor tyrosine-protein kinase erbB-2 (Homo sapiens, UniProt P04626); assay: Inhibition of HER2 (unknown origin)
[6] = molecular target: Protein-tyrosine kinase 2-beta (Homo sapiens, UniProt Q14289); assay: Inhibition of Pyk2 (unknown origin)
Focal adhesion kinase 1 [7] = molecular target: T1, Focal adhesion kinase 1 (Homo sapiens, UniProt Q05397)
Focal adhesion kinase 1 [8] = molecular target: T1, Focal adhesion kinase 1; remark: listed apart in the source

Chain of Dual specificity mitogen-activated protein kinase kinase 1 (Q02750 whole entry): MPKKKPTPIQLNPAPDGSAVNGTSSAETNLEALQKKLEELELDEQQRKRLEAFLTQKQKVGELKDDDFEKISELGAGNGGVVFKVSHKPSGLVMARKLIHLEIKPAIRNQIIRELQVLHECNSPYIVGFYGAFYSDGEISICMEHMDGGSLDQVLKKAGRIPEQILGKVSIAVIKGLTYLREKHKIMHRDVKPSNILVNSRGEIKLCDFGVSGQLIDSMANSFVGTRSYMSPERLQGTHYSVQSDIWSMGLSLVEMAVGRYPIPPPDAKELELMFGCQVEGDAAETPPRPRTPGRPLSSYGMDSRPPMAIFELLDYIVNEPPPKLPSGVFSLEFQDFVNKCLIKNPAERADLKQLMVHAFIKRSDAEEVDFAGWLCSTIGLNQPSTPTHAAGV
T1 sequence (Q05397 whole entry): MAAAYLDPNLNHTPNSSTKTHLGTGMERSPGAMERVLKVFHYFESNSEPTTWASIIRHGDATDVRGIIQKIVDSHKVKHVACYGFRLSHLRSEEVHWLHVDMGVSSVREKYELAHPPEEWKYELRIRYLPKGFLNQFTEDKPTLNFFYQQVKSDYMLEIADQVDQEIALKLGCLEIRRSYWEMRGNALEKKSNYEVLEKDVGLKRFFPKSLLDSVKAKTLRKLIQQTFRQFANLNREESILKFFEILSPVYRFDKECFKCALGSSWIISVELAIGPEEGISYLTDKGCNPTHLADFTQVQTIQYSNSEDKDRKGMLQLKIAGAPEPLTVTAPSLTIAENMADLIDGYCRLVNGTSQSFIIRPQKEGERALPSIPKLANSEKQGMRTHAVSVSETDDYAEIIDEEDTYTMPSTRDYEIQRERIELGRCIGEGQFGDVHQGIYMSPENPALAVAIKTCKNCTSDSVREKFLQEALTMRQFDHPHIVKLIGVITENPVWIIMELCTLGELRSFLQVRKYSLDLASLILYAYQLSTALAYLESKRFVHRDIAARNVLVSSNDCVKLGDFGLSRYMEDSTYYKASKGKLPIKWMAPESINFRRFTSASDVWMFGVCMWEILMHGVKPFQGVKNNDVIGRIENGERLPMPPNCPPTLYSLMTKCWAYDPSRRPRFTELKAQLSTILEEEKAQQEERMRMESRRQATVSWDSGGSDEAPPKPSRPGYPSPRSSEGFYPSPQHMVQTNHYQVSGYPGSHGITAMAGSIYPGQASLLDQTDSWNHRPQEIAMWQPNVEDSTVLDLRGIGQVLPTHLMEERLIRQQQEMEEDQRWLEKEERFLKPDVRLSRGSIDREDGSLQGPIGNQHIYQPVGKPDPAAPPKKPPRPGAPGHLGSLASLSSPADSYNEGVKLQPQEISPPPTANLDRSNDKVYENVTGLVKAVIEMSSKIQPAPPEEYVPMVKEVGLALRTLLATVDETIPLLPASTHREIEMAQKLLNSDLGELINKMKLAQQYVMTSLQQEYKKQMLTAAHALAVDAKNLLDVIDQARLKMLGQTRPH
Chain of Mitogen-activated protein kinase 14 (Q16539 whole entry): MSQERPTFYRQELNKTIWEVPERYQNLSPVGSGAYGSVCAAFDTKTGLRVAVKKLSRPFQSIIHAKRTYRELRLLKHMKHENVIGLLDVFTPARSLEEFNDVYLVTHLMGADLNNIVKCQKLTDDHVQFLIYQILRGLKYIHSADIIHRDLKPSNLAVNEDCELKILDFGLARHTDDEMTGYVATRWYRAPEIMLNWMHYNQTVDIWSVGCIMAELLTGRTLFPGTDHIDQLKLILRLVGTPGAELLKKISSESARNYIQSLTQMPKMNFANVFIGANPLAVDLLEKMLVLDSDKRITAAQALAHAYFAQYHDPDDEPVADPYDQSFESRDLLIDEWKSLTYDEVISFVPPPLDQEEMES
Chain of Aurora kinase B (Q96GD4 whole entry): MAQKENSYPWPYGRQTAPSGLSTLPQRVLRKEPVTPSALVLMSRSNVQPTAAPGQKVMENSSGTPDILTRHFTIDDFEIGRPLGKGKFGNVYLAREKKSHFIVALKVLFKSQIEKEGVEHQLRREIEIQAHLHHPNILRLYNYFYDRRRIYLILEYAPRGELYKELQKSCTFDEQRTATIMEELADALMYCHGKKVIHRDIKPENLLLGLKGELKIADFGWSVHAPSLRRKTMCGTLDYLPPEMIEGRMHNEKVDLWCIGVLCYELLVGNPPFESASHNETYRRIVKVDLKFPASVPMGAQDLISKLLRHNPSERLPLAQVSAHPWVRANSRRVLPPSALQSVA
Chain of Proto-oncogene tyrosine-protein kinase Src (P12931 2-536 limits assumed): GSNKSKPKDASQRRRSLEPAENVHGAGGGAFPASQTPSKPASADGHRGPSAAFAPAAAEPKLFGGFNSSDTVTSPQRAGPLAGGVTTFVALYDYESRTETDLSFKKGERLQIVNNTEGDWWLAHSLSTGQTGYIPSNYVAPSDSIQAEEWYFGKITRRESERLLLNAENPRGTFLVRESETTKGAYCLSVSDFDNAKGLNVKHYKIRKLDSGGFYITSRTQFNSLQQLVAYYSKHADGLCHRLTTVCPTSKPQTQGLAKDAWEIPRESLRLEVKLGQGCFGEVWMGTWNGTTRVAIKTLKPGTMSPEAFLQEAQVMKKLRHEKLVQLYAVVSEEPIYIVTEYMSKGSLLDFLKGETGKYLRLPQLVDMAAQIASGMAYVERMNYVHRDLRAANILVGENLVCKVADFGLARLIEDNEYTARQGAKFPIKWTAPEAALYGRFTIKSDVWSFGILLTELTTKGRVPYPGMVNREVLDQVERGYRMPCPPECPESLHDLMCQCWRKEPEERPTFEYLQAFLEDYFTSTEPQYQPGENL
Chain of Receptor tyrosine-protein kinase erbB-2 (P04626 whole entry): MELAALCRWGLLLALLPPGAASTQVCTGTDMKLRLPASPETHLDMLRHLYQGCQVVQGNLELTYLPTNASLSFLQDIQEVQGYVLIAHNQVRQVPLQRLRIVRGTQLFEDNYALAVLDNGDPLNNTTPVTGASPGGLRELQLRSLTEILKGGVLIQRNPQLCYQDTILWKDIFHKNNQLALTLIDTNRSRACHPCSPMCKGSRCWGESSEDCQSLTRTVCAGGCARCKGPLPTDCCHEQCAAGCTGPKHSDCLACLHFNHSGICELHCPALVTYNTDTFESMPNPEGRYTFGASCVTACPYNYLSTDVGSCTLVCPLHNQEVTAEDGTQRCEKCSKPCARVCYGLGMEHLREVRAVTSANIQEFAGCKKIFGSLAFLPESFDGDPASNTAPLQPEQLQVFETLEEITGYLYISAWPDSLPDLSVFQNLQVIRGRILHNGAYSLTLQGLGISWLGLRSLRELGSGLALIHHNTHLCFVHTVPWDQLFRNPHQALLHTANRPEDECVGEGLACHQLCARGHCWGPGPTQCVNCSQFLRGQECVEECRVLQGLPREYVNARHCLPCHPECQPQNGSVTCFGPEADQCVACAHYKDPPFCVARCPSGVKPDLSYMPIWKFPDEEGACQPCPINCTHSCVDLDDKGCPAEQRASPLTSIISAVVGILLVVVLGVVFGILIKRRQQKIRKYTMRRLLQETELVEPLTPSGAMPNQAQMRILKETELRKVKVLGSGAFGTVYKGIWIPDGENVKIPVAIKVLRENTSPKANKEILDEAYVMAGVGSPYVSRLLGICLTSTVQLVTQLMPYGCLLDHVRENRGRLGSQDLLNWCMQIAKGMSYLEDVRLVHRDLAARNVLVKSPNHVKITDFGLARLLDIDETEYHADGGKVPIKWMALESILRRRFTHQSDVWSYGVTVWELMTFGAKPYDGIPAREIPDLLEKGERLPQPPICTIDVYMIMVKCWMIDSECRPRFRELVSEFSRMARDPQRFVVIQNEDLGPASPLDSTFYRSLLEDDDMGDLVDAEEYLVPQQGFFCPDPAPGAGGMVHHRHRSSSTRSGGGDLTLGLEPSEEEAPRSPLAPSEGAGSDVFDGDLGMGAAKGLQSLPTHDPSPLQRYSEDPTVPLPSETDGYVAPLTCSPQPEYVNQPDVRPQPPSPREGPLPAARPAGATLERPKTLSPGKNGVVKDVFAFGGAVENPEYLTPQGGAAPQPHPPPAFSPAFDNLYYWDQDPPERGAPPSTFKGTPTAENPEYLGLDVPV
Chain of RAC-alpha serine/threonine-protein kinase (P31749 whole entry): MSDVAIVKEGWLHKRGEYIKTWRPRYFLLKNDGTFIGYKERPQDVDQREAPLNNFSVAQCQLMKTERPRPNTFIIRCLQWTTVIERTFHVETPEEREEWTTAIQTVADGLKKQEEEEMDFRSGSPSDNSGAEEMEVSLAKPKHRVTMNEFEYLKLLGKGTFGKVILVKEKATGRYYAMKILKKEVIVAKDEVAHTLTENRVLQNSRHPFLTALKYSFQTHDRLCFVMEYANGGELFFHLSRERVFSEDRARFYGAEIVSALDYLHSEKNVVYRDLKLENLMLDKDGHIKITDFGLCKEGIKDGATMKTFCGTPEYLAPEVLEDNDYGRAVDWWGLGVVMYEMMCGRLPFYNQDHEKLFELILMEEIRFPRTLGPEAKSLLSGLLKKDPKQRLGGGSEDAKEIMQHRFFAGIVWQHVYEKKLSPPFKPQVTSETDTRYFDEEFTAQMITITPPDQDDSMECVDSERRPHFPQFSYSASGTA

Row | IC50 [1] [µM] | IC50 [2] [µM] | IC50 (Aurora kinase B) [µM] | IC50 [3] [µM] | IC50 [4] [µM] | IC50 [5] [µM] | IC50 [6] [µM] | IC50 (Focal adhesion kinase 1 [7]) [nM] | IC50 (Focal adhesion kinase 1 [8]) [nM] | SMILES
1 | – | – | – | – | – | – | – | > 30000 | – | CCc1ccc(-c2ccc3c(c2)-c2nn(C)cc2S(=O)(=O)N3C)cc1
2 | > 10 | 8.6 | 5.1 | > 10 | > 10 | > 10 | – | – | – | CCc1ccc(-c2ccc3c(c2)-c2n[nH]cc2S(=O)(=O)N3C)cc1

Second part, the molecule before the results:

Row | SMILES | IC50 [1] [µM] | IC50 [2] [µM] | IC50 (Aurora kinase B) [µM] | IC50 [3] [µM] | IC50 [4] [µM] | IC50 [5] [µM] | IC50 [6] [µM] | IC50 (Focal adhesion kinase 1 [7]) [nM] | IC50 (Focal adhesion kinase 1 [8]) [nM]
3 | CCc1ccc(-c2ccc3c(c2)-c2c(cnn2C)S(=O)(=O)N3C)cc1 | > 10 | > 10 | > 10 | > 10 | > 10 | > 10 | > 10 | 77 | 420
4 | CCc1ccc(-c2ccc3c(c2)-c2c(cnn2CC)S(=O)(=O)N3C)cc1 | – | – | – | – | – | – | – | 2100 | –
5 | CN1c2ccc(C(=O)Nc3ccc(F)cc3)cc2-c2c(cnn2C)S1(=O)=O | – | – | – | – | – | – | – | > 30000 | –
6 | CN1c2ccc(NCc3ccc(C(C)(C)C)cc3)cc2-c2c(cnn2C)S1(=O)=O | > 10 | > 10 | > 10 | > 10 | > 10 | > 10 | > 10 | – | –

From ChEMBL document CHEMBL2331389, “Structure-based discovery of cellular-active allosteric inhibitors of FAK” (Bioorg Med Chem Lett, 2013)
